pIC50: −log10 of the molar value. Where a name gives a salt, the structure may show the parent alone. Read-outs that look alike come from different tables or passages of the source.
Tests used:
Assay type in all cases: biochemical
[1] = molecular target: T1, human JAK2 (a.a. 828-1132) (Homo sapiens, UniProt O60674); experiment: In vitro JAK kinase assay (HTRF, phosphorylation of a biotinylated peptide), JAK2
T1 construct: JAK2 (a.a. 828-1132); His tag (N); made in house; host or cells: insect cells (baculovirus)
T1 sequence (O60674 828-1132): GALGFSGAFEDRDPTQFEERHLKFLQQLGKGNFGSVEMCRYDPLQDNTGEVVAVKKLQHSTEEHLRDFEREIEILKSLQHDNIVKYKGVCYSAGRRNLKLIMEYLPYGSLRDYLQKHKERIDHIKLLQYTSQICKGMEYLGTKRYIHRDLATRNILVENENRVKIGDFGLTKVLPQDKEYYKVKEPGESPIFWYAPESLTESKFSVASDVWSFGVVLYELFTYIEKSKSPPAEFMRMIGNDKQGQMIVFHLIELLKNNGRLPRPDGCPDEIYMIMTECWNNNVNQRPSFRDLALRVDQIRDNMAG
Summary of the method: (§1)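 Kinase reactions ran at room temperature for 1 h with ATP matched per isoform (JAK1 90 μM, JAK2 30 μM, JAK3 3 μM). After an EDTA stop, the phosphorylated biotin-peptide was read by HTRF using Eu-Py20 and SA-APC after 40 min binding.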

[2] = molecular target: TYK2 (Homo sapiens, UniProt P29597); experiment: TYK2 kinase inhibition (Table A1)
Chain of TYK2 (P29597 whole entry): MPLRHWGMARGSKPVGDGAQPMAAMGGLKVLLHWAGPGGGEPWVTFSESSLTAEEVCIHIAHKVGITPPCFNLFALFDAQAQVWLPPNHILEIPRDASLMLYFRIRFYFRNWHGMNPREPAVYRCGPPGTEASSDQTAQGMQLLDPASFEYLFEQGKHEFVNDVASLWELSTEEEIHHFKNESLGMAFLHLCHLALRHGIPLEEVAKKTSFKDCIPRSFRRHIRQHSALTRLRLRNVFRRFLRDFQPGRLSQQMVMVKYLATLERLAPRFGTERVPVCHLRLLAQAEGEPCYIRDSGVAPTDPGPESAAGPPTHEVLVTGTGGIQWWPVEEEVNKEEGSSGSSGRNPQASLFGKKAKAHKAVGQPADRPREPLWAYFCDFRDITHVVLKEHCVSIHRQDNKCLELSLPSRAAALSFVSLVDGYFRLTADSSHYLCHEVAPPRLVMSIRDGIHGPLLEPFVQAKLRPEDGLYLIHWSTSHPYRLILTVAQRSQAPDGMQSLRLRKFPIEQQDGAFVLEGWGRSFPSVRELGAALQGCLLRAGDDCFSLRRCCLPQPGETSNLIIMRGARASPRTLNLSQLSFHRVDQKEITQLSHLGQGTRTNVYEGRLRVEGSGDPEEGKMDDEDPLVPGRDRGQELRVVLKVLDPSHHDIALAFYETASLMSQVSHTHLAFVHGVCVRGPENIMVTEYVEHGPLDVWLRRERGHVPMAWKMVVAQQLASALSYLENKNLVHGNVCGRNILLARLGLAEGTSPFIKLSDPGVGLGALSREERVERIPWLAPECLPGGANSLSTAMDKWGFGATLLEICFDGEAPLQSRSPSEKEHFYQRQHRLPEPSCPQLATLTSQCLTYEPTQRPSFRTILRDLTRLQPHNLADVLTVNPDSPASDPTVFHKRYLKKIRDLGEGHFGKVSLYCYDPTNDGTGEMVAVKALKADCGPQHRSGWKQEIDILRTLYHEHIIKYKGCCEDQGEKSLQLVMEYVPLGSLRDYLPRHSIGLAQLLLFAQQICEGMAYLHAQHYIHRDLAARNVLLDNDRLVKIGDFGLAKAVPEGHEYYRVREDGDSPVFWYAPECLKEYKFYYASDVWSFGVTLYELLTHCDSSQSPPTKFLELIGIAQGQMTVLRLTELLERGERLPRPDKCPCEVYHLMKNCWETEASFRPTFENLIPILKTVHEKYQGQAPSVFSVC

[3] = molecular target: T2, human JAK3 (a.a. 781-1124) (Homo sapiens, UniProt P52333); experiment: In vitro JAK kinase assay (HTRF, phosphorylation of a biotinylated peptide), JAK3
T2 construct: JAK3 (a.a. 781-1124); His tag (N); made in house; host or cells: insect cells (baculovirus)
T2 sequence (P52333 781-1124): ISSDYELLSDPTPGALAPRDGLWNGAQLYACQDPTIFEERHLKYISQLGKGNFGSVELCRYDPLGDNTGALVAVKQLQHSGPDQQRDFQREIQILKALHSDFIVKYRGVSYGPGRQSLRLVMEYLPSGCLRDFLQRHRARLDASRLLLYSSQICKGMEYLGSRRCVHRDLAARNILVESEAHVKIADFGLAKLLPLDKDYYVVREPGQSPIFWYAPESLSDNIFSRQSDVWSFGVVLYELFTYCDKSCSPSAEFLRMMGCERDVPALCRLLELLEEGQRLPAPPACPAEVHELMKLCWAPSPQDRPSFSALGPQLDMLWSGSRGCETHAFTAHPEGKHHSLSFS
Summary of the method: as §1

[4] = molecular target: T3, human JAK1 (a.a. 837-1142) (Homo sapiens, UniProt P23458); experiment: In vitro JAK kinase assay (HTRF, phosphorylation of a biotinylated peptide), JAK1; conditions: read-out: JAK1 IC50
T3 construct: human JAK1 (a.a. 837-1142); His tag (N); made in house; host or cells: insect cells (baculovirus)
T3 sequence (P23458 849-1154): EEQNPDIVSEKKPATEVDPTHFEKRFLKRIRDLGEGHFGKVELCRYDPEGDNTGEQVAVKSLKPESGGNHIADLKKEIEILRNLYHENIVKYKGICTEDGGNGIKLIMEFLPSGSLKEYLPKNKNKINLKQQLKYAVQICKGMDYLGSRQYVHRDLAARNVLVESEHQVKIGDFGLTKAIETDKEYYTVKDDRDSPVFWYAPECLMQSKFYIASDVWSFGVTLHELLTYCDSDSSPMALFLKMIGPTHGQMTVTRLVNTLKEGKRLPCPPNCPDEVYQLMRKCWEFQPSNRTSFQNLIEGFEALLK
Summary of the method: as §1

Row | SMILES | pIC50 [1] | pIC50 [2] | pIC50 [3] | pIC50 [4] | pIC50 ([1]; Table D1) | pIC50 ([2]; Table D1) | pIC50 ([3]; Table D1) | pIC50 ([4]; Table D1)
1 | O=C(Cc1cccs1)Nc1ccc2cc1CCc1cccc(c1)Nc1ncc(Cl)c(n1)N2 [Example C42, N-[6-Chloro-2,4,8,22-tetraazatetracyclo[14.3.1.1(3,7).1(9,13)]docosa-1(20),3(22),4,6,9(21),10,12,16,18-nonaen-12-yl]-2-(2-thienyl)acetamide trifluoroacetate] | 7.64 | 7.02 | 6.46 | 7.43 |  |  |  | 
2 | N#Cc1ccccc1S(=O)(=O)N1CCC(COc2ccc3cc2CCc2cncc(c2)Nc2ncc(Cl)c(n2)N3)C1 (stereo not drawn) [Example C57, 2-{[3-({[6-Chloro-2,4,8,18,22-pentaazatetracyclo[14.3.1.1(3,7).1(9,13)]docosa-1(20),3(22),4,6,9(21),10,12,16,18-nonaen-12-yl]oxy}methyl)pyrrolidin-1-yl]sulfonyl}benzonitrile bis(trifluoroacetate)] | 6.54 | < 6.40 | < 6.40 | < 6.40 |  |  |  | 
3 | Cn1cc(CC(=O)Nc2ccc3cc2CCc2cccc(c2)Nc2ncc(Cl)c(n2)N3)c2ccccc21 [Example C37, N-[6-Chloro-2,4,8,22-tetraazatetracyclo[14.3.1.1(3,7).1(9,13)]docosa-1(20),3(22),4,6,9(21),10,12,16,18-nonaen-12-yl]-2-(1-methyl-1H-indol-3-yl)acetamide trifluoroacetate] | 6.56 | 6.24 | 5.58 | 6.30 |  |  |  | 
4 | CN1c2cccc(c2)CCc2cccc(c2)Nc2nccc1n2 [Example D223, 8-Methyl-2,4,8,22-tetraazatetracyclo[14.3.1.1(3,7).1(9,13)]docosa-1(20),3(22),4,6,9(21),10,12,16,18-nonaene trifluoroacetate] |  |  |  |  | 6.97 | < 6.40 | < 6.40 | < 6.40
5 | O=C(CC1CN(C(=O)c2nccs2)C1)Nc1ccc2cc1CCc1cncc(c1)Nc1ncc(Cl)c(n1)N2 [Example D145, N-[6-Chloro-2,4,8,18,22-pentaazatetracyclo[14.3.1.1(3,7).1(9,13)]docosa-1(20),3(22),4,6,9(21),10,12,16,18-nonaen-12-yl]-2-[1-(1,3-thiazol-2-ylcarbonyl)azetidin-3-yl]acetamide bis(trifluoroacetate)] |  |  |  |  | 6.91 | 6.11 | < 6.00 | 7.51
6 | Cc1csc(NC(=O)N2CCC(CCOc3ccc4cc3CCc3cncc(c3)Nc3ncc(Cl)c(n3)N4)CC2)c1 [Example D172, 4-(2-{[6-Chloro-2,4,8,18,22-pentaazatetracyclo[14.3.1.1(3,7).1(9,13)]docosa-1(20),3(22),4,6,9(21),10,12,16,18-nonaen-12-yl]oxy}ethyl)-N-(4-methyl-2-thienyl)piperidine-1-carboxamide bis(trifluoroacetate)] |  |  |  |  | < 6.40 | < 6.40 | < 6.40 | 6.89
7 | NC(=O)N1CCN(c2ccc3cc2CCc2cccc(c2)Nc2ncc(Cl)c(n2)N3)CC1 [Example D87, 4-[6-Chloro-2,4,8,22-tetraazatetracyclo[14.3.1.1(3,7).1(9,13)]docosa-1(20),3(22),4,6,9(21),10,12,16,18-nonaen-12-yl]piperazine-1-carboxamide bis(trifluoroacetate)] |  |  |  |  | 8.48 | 7.52 | 7.47 | 7.74
8 | O=C(c1cccnc1)N1Cc2cccc(c2)Nc2ncc(Cl)c(n2)Nc2cccc1c2 [Example C27, 6-Chloro-14-(pyridin-3-ylcarbonyl)-2,4,8,14,22-pentaazatetracyclo[14.3.1.1(3,7).1(9,13)]docosa-1(20),3(22),4,6,9(21),10,12,16,18-nonaene] | 7.23 | 6.30 | 5.89 | 7.37 |  |  |  | 
9 | O=C(COc1ccc2cc1CCc1cncc(c1)Nc1ncc(Cl)c(n1)N2)N1CCC(c2cc(-c3cccs3)[nH]n2)CC1 [Example D257, 6-Chloro-12-(2-oxo-2-{4-[5-(2-thienyl)-1H-pyrazol-3-yl]piperidin-1-yl}ethoxy)-2,4,8,18,22-pentaazatetracyclo[14.3.1.1(3,7).1(9,13)]docosa-1(20),3(22),4,6,9(21),10,12,16,18-nonaene tris(trifluoroacetate)] |  |  |  |  | 6.95 | < 6.40 | < 6.40 | 7.20
10 | O=C(COc1ccc2cc1CCc1cncc(c1)Nc1ncc(Cl)c(n1)N2)N1CCN(C(=O)c2ccno2)CC1 [Example D260, 6-Chloro-12-{2-[4-(isoxazol-5-ylcarbonyl)piperazin-1-yl]-2-oxoethoxy}-2,4,8,18,22-pentaazatetracyclo[14.3.1.1(3,7).1(9,13)]docosa-1(20),3(22),4,6,9(21),10,12,16,18-nonaene bis(trifluoroacetate)] |  |  |  |  | 7.66 | 6.54 | < 6.40 | 7.82
11 | O=c1[nH]c2cc3cc(c2o1)CCc1cccc(c1)Nc1ncc(Cl)c(n1)N3 [Example D184, 4-Chloro-18-oxa-2,6,8,20,25-pentaazapentacyclo[14.6.1.1(3,7).1(9,13).0(17,21)]pentacosa-1(23),3(25),4,6,9(24),10,12,16,21-nonaen-19-one] |  |  |  |  | 8.55 | 8.74 | 7.68 | 9.05
12 | Cc1cc(C(=O)N2CCC[C@@H](CC(=O)Nc3ccc4cc3CCc3cncc(c3)Nc3ncc(Cl)c(n3)N4)C2)no1 [Example D208, N-[6-Chloro-2,4,8,18,22-pentaazatetracyclo[14.3.1.1(3,7).1(9,13)]docosa-1(20),3(22),4,6,9(21),10,12,16,18-nonaen-12-yl]-2-{(3S)-1-[(5-methylisoxazol-3-yl)carbonyl]piperidin-3-yl}acetamide bis(trifluoroacetate)] |  |  |  |  | 7.82 | 7.09 | 7.19 | 7.74
13 | O=C(CC1CN(c2ccccn2)C1)Nc1ccc2cc1CCc1cncc(c1)Nc1ncc(Cl)c(n1)N2 [Example D153, N-[6-Chloro-2,4,8,18,22-pentaazatetracyclo[14.3.1.1(3,7).1(9,13)]docosa-1(20),3(22),4,6,9(21),10,12,16,18-nonaen-12-yl]-2-(1-pyridin-2-ylazetidin-3-yl)acetamide tris(trifluoroacetate)] |  |  |  |  | 6.82 | < 6.40 | < 6.40 | 7.52
14 | O=C(C[C@H]1CCCNC1)Nc1ccc2cc1CCc1cncc(c1)Nc1ncc(Cl)c(n1)N2 [Example D195, N-[6-Chloro-2,4,8,18,22-pentaazatetracyclo[14.3.1.1(3,7).1(9,13)]docosa-1(20),3(22),4,6,9(21),10,12,16,18-nonaen-12-yl]-2-[(3R)-piperidin-3-yl]acetamidetris(trifluoroacetate)] |  |  |  |  | 7.27 | 7.51 | 6.45 | 7.74
15 | O=C(C[C@H]1CCN(c2nc3ccccc3s2)C1)Nc1ccc2cc1CCc1cncc(c1)Nc1ncc(Cl)c(n1)N2 [Example D136, 2-[(3R)-1-(1,3-Benzothiazol-2-yl)pyrrolidin-3-yl]-N-[6-chloro-2,4,8,18,22-pentaazatetracyclo[14.3.1.1(3,7).1(9,13)]docosa-1(20),3(22),4,6,9(21),10,12,16,18-nonaen-12-yl]acetamide tris(trifluoroacetate)] |  |  |  |  | 7.28 | 6.97 | < 6.00 | 8.18
